Measured values from PubChem BioAssay AID1963828 (Molecular Pharmacology Branch, DTP, NCI, 2024).

System: 991263-137-R1-J2-PDC complex spheroid viability
Experiment: Anticancer human tumor 991263-137-R1-J2-PDC patient-derived colon adenocarcinoma cell line growth inhibition [POLQ]
Conditions: for IC50: curve of first compound; for viability, T/C: stronger effect = lower value
Procedure, shortened: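 PDC + HUVEC + MSC complex spheroids; POLQ inhibitors ± partner drugs; top conc. at/near clinical Cmax, else 10 microM (SN-38 1 microM), half-log dilutions; 37 degrees C, 5% CO2.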

[1] = second compound 0.0316 µM, first compound 0.0316 µM
[2] = second compound 0.0316 µM, first compound 0.1 µM
[3] = second compound 0.0316 µM, first compound 0.316 µM
[4] = second compound 0.0316 µM, first compound 1 µM
[5] = second compound 0.0316 µM, first compound 3.16 µM
[6] = second compound 0.0316 µM, first compound 10 µM
[7] = second compound 0.1 µM, first compound 0.0316 µM
[8] = second compound 0.1 µM, first compound 0.1 µM
[9] = second compound 0.1 µM, first compound 0.316 µM
[10] = second compound 0.1 µM, first compound 1 µM
[11] = second compound 0.1 µM, first compound 3.16 µM
[12] = second compound 0.1 µM, first compound 10 µM
[13] = second compound 0.316 µM, first compound 0.0316 µM
[14] = second compound 0.316 µM, first compound 0.1 µM
[15] = second compound 0.316 µM, first compound 0.316 µM
[16] = second compound 0.316 µM, first compound 1 µM
[17] = second compound 0.316 µM, first compound 3.16 µM
[18] = second compound 0.316 µM, first compound 10 µM
[19] = second compound 1 µM, first compound 0.0316 µM
[20] = second compound 1 µM, first compound 0.1 µM
[21] = second compound 1 µM, first compound 0.316 µM
[22] = second compound 1 µM, first compound 1 µM
[23] = second compound 1 µM, first compound 3.16 µM
[24] = second compound 1 µM, first compound 10 µM
[25] = second compound 3.16 µM, first compound 0.0316 µM
[26] = second compound 3.16 µM, first compound 0.1 µM
[27] = second compound 3.16 µM, first compound 0.316 µM
[28] = second compound 3.16 µM, first compound 1 µM
[29] = second compound 3.16 µM, first compound 3.16 µM
[30] = second compound 3.16 µM, first compound 10 µM
[31] = second compound 10 µM, first compound 0.0316 µM
[32] = second compound 10 µM, first compound 0.1 µM
[33] = second compound 10 µM, first compound 0.316 µM
[34] = second compound 10 µM, first compound 1 µM
[35] = second compound 10 µM, first compound 3.16 µM
[36] = second compound 10 µM, first compound 10 µM
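Further: spheroids exposed to compounds for 7 days before readout.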
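Wherever viability, T/C is given: 100% = DMSO vehicle control viability.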

In the case of `CC1COCCN1c1cc(-c2ccnn2C)c2ccnc(-c3ccn[nH]3)c2n1` (stereo not drawn) + Nc1ccc(C#CCN(C(=O)Cc2ncc(C(F)(F)F)cc2C(F)(F)F)c2ccc(F)cc2)nn1, the IC50 (second compound 0.0316 µM) is reported as 1140 nM, the IC50 (second compound 0.1 µM) is reported as 1610 nM and the IC50 (second compound 0.316 µM) is reported as 1150 nM. It also gave an IC50 (second compound 1 µM) of 1400 nM, an IC50 (second compound 3.16 µM) of 1110 nM and an IC50 (second compound 10 µM) of 918 nM. It also gave a viability, T/C [1] of 105%, a viability, T/C [2] of 93.8% and a viability, T/C [3] of 75.6%. The viability, T/C [4] was 50.6%, the viability, T/C [5] was 38.6% and the viability, T/C [6] was 32.5%. It also gave a viability, T/C [7] of 105%, a viability, T/C [8] of 88.7% and a viability, T/C [9] of 69.5%. For the same molecule, the viability, T/C [10] was 58.4%, the viability, T/C [11] was 39.9% and the viability, T/C [12] was 32.5%. The viability, T/C [13] was 99.4%, the viability, T/C [14] was 107% and the viability, T/C [15] was 74.4%. It also gave a viability, T/C [16] of 53.7%, a viability, T/C [17] of 40.6% and a viability, T/C [18] of 32%. It also gave a viability, T/C [19] of 108%, a viability, T/C [20] of 94% and a viability, T/C [21] of 75.5%. It also gave a viability, T/C [22] of 53.4%, a viability, T/C [23] of 40.4% and a viability, T/C [24] of 31.1%. For the same molecule, the viability, T/C [25] was 103%, the viability, T/C [26] was 95.8% and the viability, T/C [27] was 72.5%. For the same molecule, the viability, T/C [28] was 53%, the viability, T/C [29] was 35.8% and the viability, T/C [30] was 31.1%. It also gave a viability, T/C [31] of 93.9%, a viability, T/C [32] of 88.2% and a viability, T/C [33] of 73%. It also gave a viability, T/C [34] of 46.2%, a viability, T/C [35] of 42.6% and a viability, T/C [36] of 33.8%.
For `CCCS(=O)(=O)Nc1ccc(F)c(C(=O)c2c[nH]c3ncc(-c4ccc(Cl)cc4)cc23)c1F` + Nc1ccc(C#CCN(C(=O)Cc2ncc(C(F)(F)F)cc2C(F)(F)F)c2ccc(F)cc2)nn1, the IC50 (second compound 0.0316 µM) was over 10000 nM, the IC50 (second compound 0.1 µM) was over 10000 nM and the IC50 (second compound 0.316 µM) was over 10000 nM. It also gave an IC50 (second compound 1 µM) of over 10000 nM, an IC50 (second compound 3.16 µM) of over 10000 nM and an IC50 (second compound 10 µM) of over 10000 nM. The viability, T/C [1] was 114%, the viability, T/C [2] was 98.2% and the viability, T/C [3] was 103%. For the same molecule, the viability, T/C [4] was 107%, the viability, T/C [5] was 117% and the viability, T/C [6] was 102%. The viability, T/C [7] was 97.6%, the viability, T/C [8] was 101% and the viability, T/C [9] was 97.2%. For the same molecule, the viability, T/C [10] was 110%, the viability, T/C [11] was 103% and the viability, T/C [12] was 103%. The viability, T/C [13] was 105%, the viability, T/C [14] was 114% and the viability, T/C [15] was 108%. The viability, T/C [16] was 98.7%, the viability, T/C [17] was 128% and the viability, T/C [18] was 95.1%. It also gave a viability, T/C [19] of 93.9%, a viability, T/C [20] of 102% and a viability, T/C [21] of 112%. It also gave a viability, T/C [22] of 117%, a viability, T/C [23] of 117% and a viability, T/C [24] of 107%. It also gave a viability, T/C [25] of 117%, a viability, T/C [26] of 97.3% and a viability, T/C [27] of 111%. It also gave a viability, T/C [28] of 93.2%, a viability, T/C [29] of 111% and a viability, T/C [30] of 115%. For the same molecule, the viability, T/C [31] was 90.2%, the viability, T/C [32] was 112% and the viability, T/C [33] was 95.7%. It also gave a viability, T/C [34] of 104%, a viability, T/C [35] of 115% and a viability, T/C [36] of 116%.
In the case of `COc1ccc([C@@H](O)c2cc(-c3ncnc4cc(N5CCOCC5)ccc34)c(F)cc2Cl)nn1` + Nc1ccc(C#CCN(C(=O)Cc2ncc(C(F)(F)F)cc2C(F)(F)F)c2ccc(F)cc2)nn1, the IC50 (second compound 0.0316 µM) is reported as 5340 nM, the IC50 (second compound 0.1 µM) is reported as 4800 nM and the IC50 (second compound 0.316 µM) is reported as 6690 nM. It also gave an IC50 (second compound 1 µM) of 5150 nM, an IC50 (second compound 3.16 µM) of 4040 nM and an IC50 (second compound 10 µM) of 2960 nM. It also gave a viability, T/C [1] of 110%, a viability, T/C [2] of 96.3% and a viability, T/C [3] of 93.1%. The viability, T/C [4] was 88.9%, the viability, T/C [5] was 66.2% and the viability, T/C [6] was 30.4%. It also gave a viability, T/C [7] of 105%, a viability, T/C [8] of 120% and a viability, T/C [9] of 91.1%. The viability, T/C [10] was 85.6%, the viability, T/C [11] was 59.2% and the viability, T/C [12] was 33.8%. For the same molecule, the viability, T/C [13] was 100%, the viability, T/C [14] was 105% and the viability, T/C [15] was 96.5%. For the same molecule, the viability, T/C [16] was 98.2%, the viability, T/C [17] was 87.9% and the viability, T/C [18] was 29.5%. It also gave a viability, T/C [19] of 107%, a viability, T/C [20] of 101% and a viability, T/C [21] of 99.5%. The viability, T/C [22] was 93.7%, the viability, T/C [23] was 64.7% and the viability, T/C [24] was 29.6%. It also gave a viability, T/C [25] of 97.1%, a viability, T/C [26] of 102% and a viability, T/C [27] of 87.1%. For the same molecule, the viability, T/C [28] was 94%, the viability, T/C [29] was 55.5% and the viability, T/C [30] was 29.5%. The viability, T/C [31] was 99.9%, the viability, T/C [32] was 95.6% and the viability, T/C [33] was 95.4%. It also gave a viability, T/C [34] of 82.5%, a viability, T/C [35] of 48% and a viability, T/C [36] of 28.6%.
For `Cn1ncnc1[C@H]1c2n[nH]c(=O)c3cc(F)cc(c23)N[C@@H]1c1ccc(F)cc1` + Nc1ccc(C#CCN(C(=O)Cc2ncc(C(F)(F)F)cc2C(F)(F)F)c2ccc(F)cc2)nn1, the IC50 (second compound 0.0316 µM) was over 100 nM, the IC50 (second compound 0.1 µM) was over 100 nM and the IC50 (second compound 0.316 µM) was over 100 nM. The IC50 (second compound 1 µM) was over 100 nM, the IC50 (second compound 3.16 µM) was over 100 nM and the IC50 (second compound 10 µM) was over 100 nM. The viability, T/C (second compound 0.0316 µM, first compound 0.000316 µM) was 106%, the viability, T/C (second compound 0.0316 µM, first compound 0.001 µM) was 97.1% and the viability, T/C (second compound 0.0316 µM, first compound 0.00316 µM) was 99.6%. It also gave a viability, T/C (second compound 0.0316 µM, first compound 0.01 µM) of 98.8%, a viability, T/C [1] of 106% and a viability, T/C [2] of 94%. The viability, T/C (second compound 0.1 µM, first compound 0.000316 µM) was 99.1%, the viability, T/C (second compound 0.1 µM, first compound 0.001 µM) was 102% and the viability, T/C (second compound 0.1 µM, first compound 0.00316 µM) was 95.2%. The viability, T/C (second compound 0.1 µM, first compound 0.01 µM) was 107%, the viability, T/C [7] was 106% and the viability, T/C [8] was 110%. For the same molecule, the viability, T/C (second compound 0.316 µM, first compound 0.000316 µM) was 93.7%, the viability, T/C (second compound 0.316 µM, first compound 0.001 µM) was 95.1% and the viability, T/C (second compound 0.316 µM, first compound 0.00316 µM) was 94.2%. The viability, T/C (second compound 0.316 µM, first compound 0.01 µM) was 105%, the viability, T/C [13] was 109% and the viability, T/C [14] was 82.9%. For the same molecule, the viability, T/C (second compound 1 µM, first compound 0.000316 µM) was 96.8%, the viability, T/C (second compound 1 µM, first compound 0.001 µM) was 103% and the viability, T/C (second compound 1 µM, first compound 0.00316 µM) was 112%. The viability, T/C (second compound 1 µM, first compound 0.01 µM) was 109%, the viability, T/C [19] was 104% and the viability, T/C [20] was 94.5%. The viability, T/C (second compound 3.16 µM, first compound 0.000316 µM) was 101%, the viability, T/C (second compound 3.16 µM, first compound 0.001 µM) was 92% and the viability, T/C (second compound 3.16 µM, first compound 0.00316 µM) was 98.3%. It also gave a viability, T/C (second compound 3.16 µM, first compound 0.01 µM) of 97.7%, a viability, T/C [25] of 101% and a viability, T/C [26] of 112%. The viability, T/C (second compound 10 µM, first compound 0.000316 µM) was 99.3%, the viability, T/C (second compound 10 µM, first compound 0.001 µM) was 106% and the viability, T/C (second compound 10 µM, first compound 0.00316 µM) was 97.1%. It also gave a viability, T/C (second compound 10 µM, first compound 0.01 µM) of 103%, a viability, T/C [31] of 101% and a viability, T/C [32] of 110%.
